From paper PMC8272136, “Discovery of New Pyrazolopyridine, Furopyridine, and Pyridine Derivatives as CDK2 Inhibitors: Design, Synthesis, Docking Studies, and Anti-Proliferative Activity” (Molecules, 2021)
“And” between values parts separate entries of the source, which are not always exact repeats. Equal values may be shown once. Read-outs that look alike come from different tables or passages of the source.

Columns and labels:
[1] = system: HCT-116 (human colorectal carcinoma) cells; experiment: MTT cytotoxicity assay, HCT-116; type: cell-based; conditions: 48 h, read-out: IC50 (µM) ± SD HCT-116
Description: (§1) In this study, ten compounds were examined in vitro for their activities against HCT-116, MCF-7, HepG2, and A549 human cancer cells using the MTT assay. The percentages of intact cells were calculated and compared to those of the control. The activities of these compounds against the four cell lines were compared to the activity of doxorubicin as well. […] In order to study the efficacy of the synthesized compounds, a comparison of the cytotoxic effect of each compound has been related to the cytotoxicity of the reference drug as follows.
(§2) Cell cultures of HCT-116 (human colorectal carcinoma), MCF-7 (human breast adenocarcinoma), HepG2 (human hepatocellular carcinoma), and A549 (human lung carcinoma) cell lines were purchased from the American Type Culture Collection (Rockville, MD, USA) and maintained in DMEM medium that was supplemented with 10% heat-inactivated FBS (fetal bovine serum), 100 U/mL penicillin, and […] streptomycin. The cells were grown at 37 °C in a humidified atmosphere of 5% CO2.
(§3) The anticancer activity against HCT-116, HepG2, A549, and MCF-7 human cancer cell lines was estimated using the 3-[4,5-dimethyl-2-thiazolyl)-2,5-diphenyl-2H-tetrazolium bromide (MTT) assay, which is based on the reduction of the tetrazolium salt by mitochondrial dehydrogenases in viable cells. Cells were dispensed in a 96-well sterile microplate (5 × 10^4 cells/well) and incubated at 37 °C with a series of different concentrations, in DMSO, of each tested compound or doxorubicin (positive control) for 48 h in a serum-free medium prior to the MTT assay. After incubation, media were carefully removed, and 40 µL of MTT (2.5 mg/mL) were added to each well and then incubated for an additional 4 h. The purple formazan dye crystals were solubilized by the addition of 200 µL of DMSO. The absorbance was measured at 570 nm using a Spectra Max Paradigm Multi-Mode microplate reader. The relative cell viability was expressed as the mean percentage of viable cells compared to the untreated control cells. All experiments were conducted in triplicate and repeated on three different days. All the values were represented as mean ± SD. IC50s were determined by probit analysis by SPSS Incprobit analysis (IBM Corp., Armonk, NY, USA).

[2] = molecular target: T1, CDK2/cyclin A2 protein kinase (Homo sapiens, UniProt P24941); parameters: method as in PMID 33390512, PMID 22119131; conditions: external test set of QSAR model, reported compounds V, VI; read-out: Experimental Activity (IC50/μM); cited from earlier work
[3] = system: MCF-7 (human breast adenocarcinoma) cells; experiment: MTT cytotoxicity assay, MCF-7; type: cell-based; conditions: MCF7, 48 h, read-out: IC50 (µM) ± SD MCF-7
Description: as §1, §2, §3

[4] = system: HepG2 (human hepatocellular carcinoma) cells; experiment: MTT cytotoxicity assay, HepG2; type: cell-based; conditions: 48 h, read-out: IC50 (µM) ± SD HepG2
Description: as §1, §2, §3

[5] = molecular target: T1, CDK2/cyclin A2 protein kinase; experiment: CDK2/cyclin A2 kinase assay (Promega Kinase-Glo Plus luminescence kit); type: biochemical
Text: It measures kinase activity by quantitating the amount of ATP remaining in solution following a kinase reaction. The luminescent signal from the assay is correlated with the amount of ATP present and is inversely correlated with the amount of kinase activity. […] The computer software Graphpad Prism was used for analyzing the luminescence data. The difference between luminescence intensities in the absence of CDK2/cyclin A2 protein kinase (Lut) and in the presence of kinase (Luc) was defined as 100% activity (Lut − Luc). Using luminescence signal (Lu) in the presence of the compound, the percentage of activity was calculated as: % activity = {(Lut − Lu)/(Lut − Luc)} × 100%, where Lu = the luminescence intensity in the presence of the compound.

[6] = system: A549 (human lung carcinoma) cells; experiment: MTT cytotoxicity assay, A549; type: cell-based; conditions: 48 h, read-out: IC50 (µM) ± SD A549
Description: as §1, §2, §3

[7] = CDK2/cyclin A2, Kinase-Glo Plus luminescence, read-out: CDK2 IC50 (µM) ± SD

SMILES | IC50 [1] | IC50 [2] | IC50 [3] | IC50 [4] | IC50 [5, 7] | IC50 [6] | melting point | IC50 ([5]; external test set of QSAR model, compound 8, CDK2, read-out: Experimental Activity (IC50/μM))
COc1cccc2c1C(=O)c1c(O)c3c(c(O)c1C2=O)C[C@@](O)(C(=O)CO)C[C@@H]3O[C@H]1C[C@H](N)[C@H](O)[C@H](C)O1 [Doxorubicin, reference compound] | 40 ± 3.9 µM |  |  |  |  |  |  | 
N#Cc1c(N)nc2[nH]c(=S)sc2c1-c1cccs1 [VI] |  | 0.139 µM |  |  |  |  |  | 
Oc1nc(-c2cccs2)c2sc(=S)[nH]c2n1 [V] |  | 0.743 µM |  |  |  |  |  | 
N#Cc1c(-c2cccs2)cc(-c2ccc3ccccc3c2)[nH]c1=O [compound 1, 6-(naphthalen-2-yl)-2-oxo-4-(thiophen-2-yl)-1,2-dihydropyridine-3-carbonitrile] | 39.1 ± 4.2 µM |  | 47 ± 4.5 µM | 27.9 ± 3.1 µM | 0.57 ± 0.1 µM | 60.6 ± 4.8 µM |  | 
N#Cc1c(-c2cccs2)cc(-c2ccc3ccccc3c2)nc1OC(=O)CCl [compound 2, 3-Cyano-6-(naphthalen-2-yl)-4-(thiophen-2-yl)pyridin-2-yl 2-chloroacetate] | 43.5 ± 4.5 µM |  | 21.3 ± 3.1 µM | 29.4 ± 3.5 µM | 1.79 ± 0.1 µM | 70.7 ± 4.1 µM | 165 to 166 °C | 
N#Cc1c(-c2cccs2)cc(-c2ccc3ccccc3c2)nc1OC1=NC(=S)NC1 [compound 3, 6-(Naphthalen-2-yl)-4-(thiophen-2-yl)-2-((2-thioxo-2,5-dihydro-1H-imidazol-4-yl)oxy)nicotinonitrile] | 49 ± 5.1 µM |  | 37.3 ± 4.1 µM | 44.8 ± 4.1 µM | 1.01 ± 0.1 µM | 57.4 ± 4.5 µM | 172 to 173 °C | 
N#Cc1c(-c2cccs2)cc(-c2ccc3ccccc3c2)nc1Cl [compound 4, 2-chloro-6-(naphthalen-2-yl)-4-(thiophen-2-yl)nicotinonitrile] | 45.9 ± 4.1 µM |  | 46.2 ± 4.1 µM | 42.9 ± 3.9 µM | 0.24 µM and 0.236 µM | 67.2 ± 5.1 µM |  | 
COc1nc(-c2ccc3ccccc3c2)cc(-c2cccs2)c1C#N [compound 5, 2-Methoxy-6-(naphthalen-2-yl)-4-(thiophen-2-yl)nicotinonitrile] | 33.8 ± 3.5 µM |  | 55.5 ± 4.5 µM | 27.2 ± 3.1 µM | 3.53 ± 0.2 µM | 47.6 ± 4.5 µM | 125 to 126 °C | 
N#Cc1c(-c2cccs2)cc(-c2ccc3ccccc3c2)nc1Nc1ccccc1 [compound 6, 6-(Naphthalen-2-yl)-2-(phenylamino)-4-(thiophen-2-yl)nicotinonitrile] |  |  |  |  |  |  | 130 to 131 °C | 
N#Cc1c(-c2cccs2)cc(-c2ccc3ccccc3c2)[nH]c1=S [compound 7] | 37.8 ± 3.9 µM |  | 27.4 ± 2.4 µM | 22.7 ± 2.9 µM | 1.27 ± 0.1 µM | 36.8 ± 4.1 µM |  | 
Nc1n[nH]c2nc(-c3ccc4ccccc4c3)cc(-c3cccs3)c12 [compound 8, 6-(Naphthalen-2-yl)-4-(thiophen-2-yl)-1H-pyrazolo[3,4-b]pyridin-3-amine] | 33.7 ± 3.3 µM |  | 19.3 ± 2.1 µM | 29.1 ± 3.5 µM | 0.65 µM and 0.651 µM | 43.8 ± 4.1 µM | 175 to 176 °C | 0.651 µM
N#Cc1c(-c2cccs2)cc(-c2ccc3ccccc3c2)nc1SC(=O)CCl [compound 11, S-(3-Cyano-6-(naphthalen-2-yl)-4-(thiophen-2-yl)pyridin-2-yl)2-chloroethanethioate] | 31.7 ± 3.5 µM |  | 46.4 ± 4.3 µM | 27.6 ± 3.3 µM | 0.5 µM and 0.504 µM | 56.9 ± 4.6 µM | 160 to 161 °C | 
CCOC(=O)COc1nc(-c2ccc3ccccc3c2)cc(-c2cccs2)c1C#N [compound 13] | 32.4 ± 3.1 µM |  | 37.6 ± 3.5 µM | 30.2 ± 3.7 µM | 4.45 ± 0.2 µM | 45.9 ± 4.3 µM |  | 
CCOC(=O)c1oc2nc(-c3ccc4ccccc4c3)cc(-c3cccs3)c2c1N [compound 14, Ethyl-3-amino-6-(naphthalen-2-yl)-4-(thiophen-2-yl)furo[2,3-b]pyridine-2-carboxylate] | 31.3 ± 3.3 µM |  | 26.1 ± 3.9 µM | 27.9 ± 3.5 µM | 0.93 µM and 0.928 µM | 56.5 ± 4.8 µM | 185 to 186 °C | 
O=c1[nH]cnc2c1oc1nc(-c3ccc4ccccc4c3)cc(-c3cccs3)c12 [compound 15, 7-(Naphthalen-2-yl)-9-(thiophen-2-yl)pyrido[3′,2′:4,5]furo[3,2-d]pyrimidin-4(3H)-one] |  |  |  |  |  |  | 197 to 198 °C | 
